The values below come from patent publication US20130096302A1, “PYRROLOPYRAZINES AND PYRAZOLOPYRAZINES USEFUL AS INHIBITORS OF PROTEIN KINASES” (priority 2005, published 2013).

The assay concerns the target T1, full length Aurora-A (AA 1-403) (Homo sapiens, UniProt O14965).
T1 sequence (O14965 1-403): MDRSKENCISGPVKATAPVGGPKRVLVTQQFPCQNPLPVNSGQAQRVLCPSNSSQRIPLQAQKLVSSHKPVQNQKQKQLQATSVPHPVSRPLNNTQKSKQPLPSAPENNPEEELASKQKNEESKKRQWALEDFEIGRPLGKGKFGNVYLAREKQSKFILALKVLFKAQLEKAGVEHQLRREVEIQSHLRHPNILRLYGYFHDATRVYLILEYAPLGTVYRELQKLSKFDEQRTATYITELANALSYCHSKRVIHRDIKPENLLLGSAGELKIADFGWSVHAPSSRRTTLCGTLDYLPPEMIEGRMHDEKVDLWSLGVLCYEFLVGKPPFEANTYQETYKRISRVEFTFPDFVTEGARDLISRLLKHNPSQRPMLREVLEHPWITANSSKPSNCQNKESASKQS
The experiment in a line: AuroraA Inhibition Assay (coupled enzyme system). It is filed as biochemical. The conditions noted are these: standard coupled enzyme system, 200 μM ATP, 800 μM peptide (LRRASLG), 35 nM Aurora-A, 30° C. The procedure: Compounds were screened for their ability to inhibit full length Aurora-A (AA 1-403) activity using a standard coupled enzyme system (Fox et al., Protein Sci., 7, pp. 2249 (1998)). Reactions were carried out in a solution containing 100 mM HEPES (pH 7.5), 10 mM MgCl2, 25 mM NaCl, 300 μM NADH, 1 mM DTT and 3% DMSO. Final substrate concentrations in the assay were 200 μM ATP (Sigma Chemicals, St Louis, Mo.) and 800 μM peptide (LRRASLG, American Peptide, Sunnyvale, Calif.). Reactions were carried out at 30° C. and 35 nM Aurora-A. Final concentrations of the components of the coupled enzyme system were 2.5 mM phosphoenolpyruvate, 200 μM NADH, 60 μg/ml pyruvate kinase and 20 μg/ml lactate dehydrogenase.
An assay stock buffer solution was prepared containing all of the reagents listed above with the exception of ATP and the test compound of interest. The assay stock buffer solution (60 μl) was incubated in a 96 well plate with 2 μl of the test compound of interest at final concentrations spanning 0.002 μM to 30 μM at 30° C. for 10 min. […] Rates of reaction were obtained using a Molecular Devices Spectramax plate reader (Sunnyvale, Calif.) over 10 min at 30° C. The Ki values were determined from the rate data as a function of inhibitor concentration using computerized nonlinear regression (Prism 3.0, Graphpad Software, San Diego, Calif.).

`Clc1cnc2[nH]cc(-c3cccc(Br)c3)c2n1` [Compound I-1, 7-(3-Bromo-phenyl)-2-chloro-5H-pyrrolo[2,3-b]pyrazine] came in with a Ki of less than 200 nM. Next, `C[C@H](Nc1nc(-c2c[nH]c3ncc(Cl)nc23)ncc1F)c1ccc(F)cc1` [Compound I-28]: less than 200 nM.

As a reminder, the Ki is a measure of affinity in units of concentration, obtained from inhibition or displacement. High values mean a looser hold on the target, low ones a stronger hold on the target.
